Structures can show the parent of a compound that is named as a salt.
Tests used:
Format in all cases: in vivo, C. elegans
[1] = test system: worms containing Pdat-1::GFP+Pdat-1::torsinA+Pdat-1::torsinA (ΔE) after 6-OHDA exposure; test: 6-OHDA dopaminergic neurodegeneration in worms with wt and mutant torsinA; conditions: wt and mutant torsinA co-expressed; 6-OHDA insult
Excerpt: Previous studies have established that the “CEP” and “ADE” mechanosensory neurons in C. elegans undergo readily discernable neuronal degeneration after treatment with the dopamine-selective neurotoxin 6-OHDA (Nass et al, 2002). The toxicity of 6-OHDA is mediated through the formation of reactive oxygen species by the generation of hydrogen peroxide and […] via a nonenzymatic auto-oxidation process (Kumar et al., 1995; Foley and Riederer, 2000). […] This degeneration can be monitored in living animals by coexpressing with green fluorescent protein and categorized into three temporally and morphologically distinct stages, including neuronal process blebbing, cell body rounding with process loss, and cell body loss. These characteristic changes reproducibly appear in this order within a few hours, recapitulating observations in MPTP-treated monkeys and in 6-OHDA-treated rats, in which damage to striatal terminals leads to retrograde changes and precedes that of SNpc cell bodies (Berger et al., 1991; Herkenham et al., 1991). The actions of torsin protein in 6-OHDA-mediated neurodegeneration has recently been shown (Cao et al., J Neurosci, 25(1):3801-3812). Animals were treated with various concentrations of 6-OHDA and neurodegeneration was followed over time, as worms develop and age, by co-expression of a dopamine GFP marker in these transparent animals.
C. elegans nematodes were grown at 25° C. on NGM plates as described by Brenner (Brenner, Genetics, 1974, 77: 71-94). Two transgenic C. elegans lines were used for primary screens of the Prestwick small molecule library. A transgenic worm line expressing Pdat-1::GFP; with both wild type (Pdat-1::torsinA) or mutant (Pdat-1:::torsinA(ΔE)). Torsin-A expresses a phenotype that results in visible neurodegeneration after treatment with 6-OHDA. Transgenic worms were plated on drug plates and progeny were studied for morphological changes in the 8 dopaminergic neurons present in C. elegans.
Drugs were administered to C. elegans according to a standard procedure (Rand and Johnson, Methods Cell Biol, 1995, 48: 187-204) by mixing the solubilized drug with the agar medium on which the worms are grown. This mode of administration allows the continuous exposure of worms to the drug.
Each drug was first dissolved in an appropriate solvent, followed by adding the drug solution into pre-autoclaved media, with the volume of drug solution already taken into account. All drugs were tested at 0.5 mg/ml initial concentration, a few of which were toxic to worms and then tested at 0.1 mg/ml or 0.025 mg/ml concentration. Each plate was seeded with 100 μl concentrated E. coli OP50 bacteria
Age-synchronized worms were obtained by treating gravid adults with 2% sodium hypochlorite and 0.5M NaOH to isolate embryos (Lewis Fleming, 1995). These embryos were grown for 30 h at 25° C. At the L3 stage, larvae were incubated with 10 mM (50 mM) 6-OHDA and 2 mM (or 10 mM) ascorbic acid for 1 h with gentle agitation every 10 minutes. (Nass et al., 2002). The worms were then washed and spread onto NGM plates seeded with bacteria (OP50) and scored at time points ranging from 2 to 72 h after 6-OHDA exposure.
Immediately after 6-OHDA treatment, worms containing the transgenes were selected under a fluorescence dissecting microscope, based on the presence of GFP, and transferred to a fresh NGM plate seeded with OP50. For each time point, 30-40 worms were applied to a 2% agarose pad and immobilized with 3 mM levamisole. Worms were examined under a Nikon Eclipse E800 epifluorescence microscope equipped with an Endow GFP filter cube (Chroma Technology, Rockingham, Vt.). For ease of analysis, only the four CEP DA neurons in the head of the worm were scored. […]

GFP::DAT-1 = test: Pdat-1::GFP::DAT-1 expression within DA neurons; conditions: for Neurons with cell body and dendritic/axonal GFP: water control 70%; for Mean pixel intensity of cell bodies ± SEM (fluorescence intensity): water control 1970 ± 80, compounds at 1.85, 1.49, 1.86 mM
[2] = test system: worms containing Punc-54::Q82::GFP+Punc-54::torsinA+Punc54::torsinA (ΔE); test: Screen for reduction of polyglutamine protein aggregates in worms with wt and mutant torsinA; conditions: differentiated by Q82::GFP lines without torsinA, with wt torsinA or with mutant torsinA
Experimental: (§1) C elegans nematodes were grown at 20° C. on NGM plates as described by Brenner (Brenner, Genetics, 1974, 77: 71-94). Several transgenic C. elegans lines were used for primary screens of the Prestwick small molecule library. A transgenic worm line expressing Punc-54::Q82-GFP; with both wild type (“wt”) (Punc=54: :torsinA) or mutant (Punc-54::torsinA(ΔE)). Torsin-A expresses a phenotype that results in visible protein aggregation under fluorescent microscope. Transgenic worms were plated on drug plates and progeny were studied for a return to soluble protein.
(§2) Drugs were administered to C. elegans according to a standard procedure (Rand and Johnson, Methods Cell Biol, 1995, 48: 187-204), by mixing the solubilized drug with the agar medium on which the worms are grown. This mode of administration allows the continuous exposure of worms to the drug.
Each drug was first dissolved in an appropriate solvent, followed by adding the drug solution into pre-autoclaved media, with the volume of drug solution already taken into account. […] Each plate was seeded with 100 μl concentrated E. coli OP50 bacteria.
(§3) The screening assays used to identify the compounds use protein aggregation readouts to determine the specificities of molecular action. […]
(§4) The methods for the aggregate analysis assay are described in Caldwell et al. (Hum Mol Genetics, 2003, 12(3): 307-319). […] MetaMorph Software (Universal Imaging Inc.) was used for pseudocoloration of images, image overlay, and aggregate size quantitation. For each worm line analyzed, average aggregate size was determined by capturing images of all aggregates in the posterior region of 30 L3-staged animals (for Q82::GFP aggregates) or all aggregates in 30 adult animals/day (for Q19::GFP analyses) at 1000× magnification. […]
(§5) To see the effect of the candidate compounds on suppressing protein misfolding and aggregation, five gravid adult worms were placed onto each drug plate and grown at 20° C. for approximately 3 days. Thirty Fl worms at L3 stage and young adult stage were counted for aggregate number.

[3] = test system: worms expressing Punc-54::Q82::GFP+Punc-54::torsinA with wt torsinA only; test: Protein aggregate assay in worms with wt torsinA only
Experimental: as §1, §2
Each drug was first dissolved in an appropriate solvent, followed by adding the drug solution into pre-autoclaved media, with the volume of drug solution already taken into account. […]
as §3, §4, §5

[4] = test system: protein misfolding and aggregation in transgenic worms; test: Preventative assay of protein aggregation (drug from hatching to L2 stage); conditions: exposure from hatching to L2 stage; scored at L3 and young adult
Experimental: (§6) To see the preventative effects of the candidate drug compounds on protein misfolding and aggregation, five gravid adult worms were placed onto each drug plate and grown at 20° C. for approximately 3 days. 35-40 Fl worms at L2 stage were picked and transferred to a control plate with the same concentration of control solvent compared to the drug plate. Thirty worms at L3 stage were counted for aggregate number 8 hours later. Thirty young adults were analyzed 32 hours later.
(§7) To calculate the scaled effectiveness of special regimen of drugs on worms based on standardized decrease in protein aggregates. The following formula was used: (A−B)/(A−C)×100%, where
(§8) A=number of aggregates for worms growing on solvent control plates
(§9) B=number of aggregates for worms grown on the specific drug plate for the entire life of the worms
C=number of aggregates for worms that received pre-L2 exposure and were then removed to solvent control plates
(§10) If the regimen has no effect, the value would equal 0%. Conversely, if the regimen was as effective as raising the worms on the drug for their entire life, the value would equal 100%.

[5] = test system: protein misfolding and aggregation in transgenic worms; test: Corrective assay of protein aggregation (drug from L2 stage onward); conditions: drug exposure from L2 stage onward; scored at L3 and young adult
Experimental: as §6, with “corrective effect” for “preventative effects”, “a solvent control” for “each drug”, “a” for “a control plate with the same concentration of control solvent compared to the”
as §7, §8, §9
C=number of aggregates for worms that received exposure from L2 stage (until adulthood)
as §10

[6] = test system: Pdat-1::GFP+Pdat-1::α-synuclein+Pdat-1::torsinA worms; test: α-synuclein toxicity assay, wt torsinA
Excerpt: (§11) We have previously shown that torsinA can prevent dopamine (“DA”) neuron degeneration resulting from overexpression of α-synuclein in the DA neurons of C. elegans, while torsinA (“ΔE”) has a reduced neuroprotection (Cao et al., J Neurosci, 2005, 25(1): 3801-3812). Specifically, only 26.1±5.3% of the worms expressing Pdat-1::GFP+Pdat-1::α-synuclein maintained all 4 wildtype CEP DA neurons as 4 day adults while the percentages of the worms expressing Pdat-1::GFP+Pdat-1::α-synuclein+Pdat-1::torsinA and Pdat-1::GFP+Pdat-1::α-synuclein+Pdat-1:: torsinA (ΔE) are 57.3±1.6% and 42.2±7.3%, respectively (Cao et al., J Neurosci, 2005, 25(1): 3801-3812) (FIG. 8).
(§12) All molecules are coded by Prestwick Library number. TorsinA-dependent compounds identified from the aggregation assay have torsinA-specific effects and, therefore, are likely to function in the same manner in the α-synuclein toxicity assay. All three α-synuclein transgenic lines were exposed to the five torsinA-dependent compounds to determine their torsinA-specificity (FIG. 9). As expected, none of these compounds had any effect in Pdat-1::GFP+Pdat-1::α-synuclein when torsinA expression is absent.

[7] = test system: Pdat-1::GFP+Pdat-1::α-synuclein+Pdat-1:: torsinA (ΔE) worms; test: α-synuclein toxicity assay, mutant torsinA
Excerpt: as §11, §12

[8] = test system: transgenic worms containing the transgene Punc-54::Q82::GFP without any torsinA expression; test: Protein aggregate assay in worms without torsinA expression
Experimental: C elegans nematodes were grown at 20° C. on NGM plates as described by Brenner (Brenner, Genetics, 1974, 77: 71-94). Several transgenic C. elegans lines were used for primary screens of the Prestwick small molecule library. A transgenic worm line expressing Punc-54::Q82-GFP; with both wild type (“wt”) (Punc=54: :torsinA) or mutant (Punc-54::torsinA(ΔE)). Torsin-A expresses a phenotype that results in visible protein aggregation under fluorescent microscope. Transgenic worms were plated on drug plates and progeny were studied for a return to soluble protein. […]
as §3, §4

[9] = Pdat-1::GFP::DAT-1, listed as Ciclopirox etnanolamine

SMILES: Cc1cc(C2CCCCC2)n(O)c(=O)c1.NCCO [Ciclopirox ethanolamine]
- neuroprotection of dopaminergic neurons against 6-OHDA [1]: showed no neuroprotection
- Worms with no GFP (GFP::DAT-1; Pdat-1::GFP::DAT-1, water control 0%): 0%
- Neurons with cell body GFP only (GFP::DAT-1; Pdat-1::GFP::DAT-1, water control 30%): 32.3%
- Neurons with cell body and dendritic/axonal GFP (GFP::DAT-1; Pdat-1::GFP::DAT-1): 66.7%
- Neurons with cell body and dendritic/axonal GFP (GFP::DAT-1; [9]): 66.7%
- Mean pixel intensity of cell bodies ± SEM (fluorescence intensity) (GFP::DAT-1; Pdat-1::GFP::DAT-1): 1923 A.U.
- Mean pixel intensity of cell bodies ± SEM (fluorescence intensity) (GFP::DAT-1; [9]): 1923 ± 85 A.U.
- effect on GFP::DAT-1 level (GFP::DAT-1; result in words): did not have any significant effect

SMILES: Cc1onc(-c2ccccc2Cl)c1C(=O)N[C@@H]1C(=O)N2[C@@H]1SC(C)(C)[C@@H]2C(=O)O [Compound 186, Cloxacillin sodium salt]
- neuroprotection of dopaminergic neurons against 6-OHDA [1]: neuroprotective actions in this model, albeit to a lesser degree

SMILES: CCn1cc(C(=O)O)c(=O)c2cc3c(cc21)OCO3 [Compound 193, Oxolinic Acid]
- Specificity in worm assay [2]: wt torsinA
- reduction of protein aggregation [3]: reduced protein aggregation
- preventative effect on protein aggregation [4]: seem to be beneficial
- corrective effect on protein aggregation [5]: seem to be beneficial
- enhanced wild type DA neuron survival [6]: 31.4±3.7%
- enhanced DA neuron survival [7]: no significant neuroprotection

SMILES: CCCCOc1ccc(C(=O)CCN2CCCCC2)cc1 [Compound 264, Dyclonine HCl]
- reduction of protein aggregates [8]: reduced the presence of protein aggregates

SMILES: CC1(C)S[C@@H]2[C@H](NC(=O)[C@H](N)c3ccc(O)cc3)C(=O)N2[C@H]1C(=O)O [Compound 357, Amoxiciflin]
- neuroprotection of dopaminergic neurons against 6-OHDA [1]: neuroprotective actions in this model, albeit to a lesser degree

SMILES: CC1=C(C(=O)O)N2C(=O)[C@@H](NC(=O)[C@H](N)c3ccc(O)cc3)[C@H]2SC1 [Compound 434, Cefadroxil]
- neuroprotection of dopaminergic neurons against 6-OHDA [1]: neuroprotective actions to the same degree as compound 235

SMILES: CC1(C)S[C@@H]2[C@H](NC(=O)C(C(=O)O)c3ccccc3)C(=O)N2[C@H]1C(=O)O (stereo partly shown) [Compound 703, Carbenicillin disodium salt]
- neuroprotection of dopaminergic neurons against 6-OHDA [1]: neuroprotective actions to the same degree as compound 235

Source: patent US20070203079A1, “Methods of using small molecule compounds for neuroprotection” (priority 2005, published 2007)
